The term EC50 denotes the midpoint of the concentration-response curve. High values mean lower potency in that assay, low ones higher potency in that assay.

Some results are limits rather than exact numbers.

In patent US12509449B2, “Anthelmintic compounds comprising a quinoline structure” (Intervet Inc., priority 2019, dated 2025) one finds EC50 and minimal effective concentration data, which are given here for 53 compounds.

The target in assay [1] is T1, human Maxi K channel (BK channel), KCNMA1 (KCa1.1) and beta1 (KCNMB1) subunits (Homo sapiens, UniProt Q12791).
T1 construct: expressed in transfected cells; host or cells: CHO K1
As to the kind of experiment: Agonistic activity at the human Maxi K channel (BK channel), membrane potential (FLIPR) in transfected CHO K1 cells. It counts as cell-based. As to conditions: membrane potential dye, 70 mM KCl. From the text:
A CHO K1 cell line was stably transfected with the KCNMA1 (KCa1.1, U11058) and beta1 (KCNMB1) subunits of the human Maxi K channel (Ponte et al, Molecular Pharmacology 2012, 81(4), 567-577).
The complete measurement takes 150 s.

Assay [2] deals with Caenorhabditis elegans slo-1a (Caenorhabditis elegans, UniProt Q95V25). The assay can be described thus: Agonistic activity at C. elegans Slo-1a, membrane potential (FLIPR) in transfected CHO K1 cells. The following applies: EC50 agonistic activity at C. elegans Slo-1a, membrane potential dye, 70 mM KCl.
Description: A CHO K1 cell line stably transfected with the Caenorhabditis elegans slo-1a (accession no Y51A2D.19a) was established. Cells were seeded in microtiter plates (black 384-well MTP, clear bottom) in a concentration of 10,000 cells/well in 25 μl medium and cultured for 20 to 24 hours at 37° C. and 5% CO2. The cell medium was removed, and the cells washed with Tyrode's solution. 1 of FMP-dye Blue-Tyrode's was added to each well and incubated at room temperature for 30 min.
For the membrane potential measurements, the prepared cell plate and substance plate were placed in the FLIPR Tetra (Molecular Devices). The baseline measurement of the fluorescence was stared for 20 sec (Exc. 510-545 nm, Emm. 565-625 nm). The cells were depolarized by addition of 25p of the diluted test compounds (final assay concentration of the KCl-Tyrode: 70 mM KCl, 2 mM CaCl2), 1 mM MgCl2, 0.8 mM NaH2PO4, 5 mM Glucose, 28 mM Hepes, pH 7.4, including the voltage sensitive dye). The complete measurement takes 150 s.
EC50 values were determined in triplicate utilizing compound dilution series. The data were determined at least in two independent tests. The data were proceeded by using the ActivityBase XE Runner software (IDBS) for curve fitting and calculation of the half-maximal effective concentration.
Another assay concerns Ascaridia galli L3. The assay can be described thus: In vitro assay Ascaridia galli larval stage 3, minimum effective concentration. It counts as cell-based. As to conditions: 20 larvae per well, microscopic examination, read-out: MEC (minimum effective concentration) against Ascaridia galli L3. An excerpt:
[…] galli (intestinal roundworm of chicken), larval stage 3 (“L3”); and Oesophagostumum dentatum (nodular worm of swine), larval stages 3 and 4 (respectively “L3” and “L4”) where suspended in a nutrient medium and distributed to 96 well plates with 20 larvae per well. The wells were spiked DMSO solutions of the compounds with declining concentration.

Chain of Caenorhabditis elegans slo-1a (Q95V25 whole entry): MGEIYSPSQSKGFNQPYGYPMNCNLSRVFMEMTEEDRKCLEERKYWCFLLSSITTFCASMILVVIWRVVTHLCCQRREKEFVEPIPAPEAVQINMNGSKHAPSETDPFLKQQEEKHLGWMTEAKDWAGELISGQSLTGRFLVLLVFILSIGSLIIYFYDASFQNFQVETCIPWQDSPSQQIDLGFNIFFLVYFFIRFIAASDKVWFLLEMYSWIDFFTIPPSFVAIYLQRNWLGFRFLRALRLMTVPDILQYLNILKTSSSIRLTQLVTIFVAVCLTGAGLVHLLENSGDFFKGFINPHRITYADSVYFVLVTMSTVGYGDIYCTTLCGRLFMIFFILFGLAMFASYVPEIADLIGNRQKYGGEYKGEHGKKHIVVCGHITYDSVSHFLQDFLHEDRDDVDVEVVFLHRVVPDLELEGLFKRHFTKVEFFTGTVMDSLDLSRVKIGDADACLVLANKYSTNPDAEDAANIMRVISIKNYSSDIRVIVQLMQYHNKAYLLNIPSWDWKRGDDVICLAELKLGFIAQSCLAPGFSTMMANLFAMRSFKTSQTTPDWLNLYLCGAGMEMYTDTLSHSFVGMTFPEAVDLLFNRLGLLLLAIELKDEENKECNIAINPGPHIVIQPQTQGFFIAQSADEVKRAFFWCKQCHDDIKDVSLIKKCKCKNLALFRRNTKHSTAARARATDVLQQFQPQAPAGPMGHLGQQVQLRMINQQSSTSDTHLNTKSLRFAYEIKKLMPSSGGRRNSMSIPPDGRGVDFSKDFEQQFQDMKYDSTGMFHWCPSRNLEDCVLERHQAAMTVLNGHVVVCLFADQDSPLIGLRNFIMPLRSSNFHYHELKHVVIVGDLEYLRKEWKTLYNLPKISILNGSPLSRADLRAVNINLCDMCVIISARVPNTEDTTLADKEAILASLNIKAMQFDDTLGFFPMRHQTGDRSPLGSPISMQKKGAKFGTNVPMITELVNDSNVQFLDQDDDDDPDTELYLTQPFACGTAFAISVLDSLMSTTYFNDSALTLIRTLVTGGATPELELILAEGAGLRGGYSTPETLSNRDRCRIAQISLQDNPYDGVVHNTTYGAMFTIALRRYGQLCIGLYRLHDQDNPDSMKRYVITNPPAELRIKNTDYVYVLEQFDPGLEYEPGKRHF
T1 sequence (Q12791 1-1178 isoform Q12791-5): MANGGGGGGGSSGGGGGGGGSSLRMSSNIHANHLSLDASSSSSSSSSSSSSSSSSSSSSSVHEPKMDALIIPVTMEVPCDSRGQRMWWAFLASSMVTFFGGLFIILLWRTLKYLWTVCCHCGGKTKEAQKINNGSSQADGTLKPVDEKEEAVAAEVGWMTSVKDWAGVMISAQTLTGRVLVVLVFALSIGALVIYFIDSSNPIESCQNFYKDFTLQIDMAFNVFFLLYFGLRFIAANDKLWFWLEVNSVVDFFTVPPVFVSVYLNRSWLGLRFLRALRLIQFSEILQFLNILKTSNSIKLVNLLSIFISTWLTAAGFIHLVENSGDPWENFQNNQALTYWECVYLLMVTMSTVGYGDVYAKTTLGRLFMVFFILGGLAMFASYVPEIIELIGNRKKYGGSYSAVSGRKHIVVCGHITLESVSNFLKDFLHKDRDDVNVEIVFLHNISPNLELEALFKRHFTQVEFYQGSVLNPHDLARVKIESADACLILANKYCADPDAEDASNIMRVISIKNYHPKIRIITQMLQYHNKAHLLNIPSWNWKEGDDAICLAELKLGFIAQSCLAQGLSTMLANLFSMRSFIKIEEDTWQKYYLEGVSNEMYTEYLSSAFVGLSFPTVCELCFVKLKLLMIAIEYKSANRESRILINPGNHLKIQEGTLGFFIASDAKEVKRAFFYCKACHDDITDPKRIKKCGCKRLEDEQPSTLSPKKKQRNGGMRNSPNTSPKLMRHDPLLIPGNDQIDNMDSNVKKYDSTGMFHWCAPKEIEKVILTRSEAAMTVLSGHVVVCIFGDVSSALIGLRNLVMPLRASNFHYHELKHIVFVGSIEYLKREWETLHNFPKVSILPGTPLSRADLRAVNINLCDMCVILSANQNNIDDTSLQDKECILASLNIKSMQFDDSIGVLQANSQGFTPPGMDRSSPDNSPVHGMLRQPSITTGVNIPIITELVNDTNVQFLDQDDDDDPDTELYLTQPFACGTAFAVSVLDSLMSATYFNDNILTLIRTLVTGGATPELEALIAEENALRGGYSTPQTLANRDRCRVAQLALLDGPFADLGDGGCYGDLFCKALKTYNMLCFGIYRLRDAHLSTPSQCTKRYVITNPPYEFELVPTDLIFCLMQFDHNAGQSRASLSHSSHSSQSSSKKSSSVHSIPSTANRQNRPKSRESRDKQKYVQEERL
T1 sequence (Q16558 whole entry partner): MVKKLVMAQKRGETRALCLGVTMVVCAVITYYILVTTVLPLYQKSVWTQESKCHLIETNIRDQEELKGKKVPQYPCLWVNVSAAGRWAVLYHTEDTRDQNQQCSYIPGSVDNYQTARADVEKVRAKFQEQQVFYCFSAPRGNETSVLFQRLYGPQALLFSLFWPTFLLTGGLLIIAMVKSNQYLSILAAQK

The compound `O=C(Cc1ccccc1)Nc1cnc2c(-c3cc(Cl)cc(Cl)c3)cccc2c1N1CCOCC1` [Compound 5] registered an EC50 in assay [1] of more than 30 µM.
Regarding `O=C(Nc1cnc2c(-c3cc(Cl)cc(Cl)c3)cccc2c1N1CCOCC1)C1CCOc2ccccc21` (centres unmarked) [Compound 7], the 50% effective concentration (EC50) in assay [1] was more than 30 µM; in assay [2] it was less than 10 µM.
`CC(C(=O)Nc1cnc2c(-c3cc(Cl)cc(Cl)c3)cccc2c1N1CCOCC1)c1ccccc1` (centres unmarked) [Compound 9]: the EC50 was more than 30 µM in assay [1] and less than 1 µM in assay [2].
The matching figures for `CN(C)c1c(NC(=O)C2CCCc3ccccc32)cnc2c(-c3cccc(Cl)c3Cl)cccc12` (centres unmarked) [Compound 13]: 1 to 10 µM and less than 1 µM.
The matching figures for `O=C(Nc1cnc2c(-c3cccc(Cl)c3Cl)cccc2c1N1CCOCC1)C1CCCc2ccccc21` (centres unmarked) [Compound 19]: 1 to 10 µM and less than 1 µM.
The matching figures for `O=C(Nc1cnc2c(-c3cccc(Cl)c3Cl)cccc2c1N1CCOCC1)C1CCc2ccccc21` (centres unmarked) [Compound 20]: 1 to 10 µM and less than 1 µM.
For `CC(C(=O)Nc1cnc2c(-c3cccc(Cl)c3Cl)cccc2c1N(C)C)c1cccc(N(C)C)c1` (centres unmarked) [Compound 50], the minimal effective concentration in the assay on Ascaridia galli L3 was not above 50 µM. This compound also yielded an EC50 in assay [1] of more than 30 µM.
Consider `O=C(Nc1cnc2c(-c3cccc(Cl)c3Cl)cccc2c1N1CCOCC1)[C@H]1CCCc2ccccc21` [Compound 53], for which, in assay [1], the EC50 lay within 1 to 10 µM.
Consider `CCOc1c(NC(=O)[C@H]2CCCc3ccccc32)cnc2c(-c3cccc(Cl)c3Cl)cccc12` [Compound 54], for which the values for the EC50 in assay [1] and in assay [2] were more than 30 µM and less than 1 µM, respectively.
The matching figures for `CCOc1c(NC(=O)C2CCCc3ccccc32)cnc2c(-c3cccc(Cl)c3Cl)cccc12` (centres unmarked) [Compound 55]: more than 30 µM and less than 1 µM.
`CC(C)Oc1c(NC(=O)C2CCCc3ccccc32)cnc2c(-c3cccc(Cl)c3Cl)cccc12` (centres unmarked) [Compound 59] returned an EC50 in assay [1] of more than 30 µM.
Take `COc1c(NC(=O)c2cccc3ccccc23)cnc2c(-c3cccc(Cl)c3Cl)cccc12` [Compound 62]: the concentration for a half-maximal effect (EC50) was more than 30 µM in assay [1] and less than 1 µM in assay [2].
For the compound `O=C(Nc1cnc2c(-c3cc(Cl)cc(Cl)c3)cccc2c1O)C1CCOc2ccccc21` (centres unmarked) [Compound 64], in assay [1], the EC50 is more than 30 µM.
For the compound `O=C(Nc1cnc2c(-c3cc(Cl)cc(Cl)c3)cccc2c1O)C1CCc2ccccc21` (centres unmarked) [Compound 65], the results for the half-maximal effective concentration (EC50) in assay [1] and in assay [2] were more than 30 µM and less than 10 µM, respectively.
For `O=C(Nc1cnc2c(-c3cc(Cl)cc(Cl)c3)cccc2c1O)c1cccc2ccccc12` [Compound 66], in the assay on Ascaridia galli L3, the minimal effective concentration was not above 50 µM. In assay [1], the EC50 was more than 30 µM.
`CN(C)c1c(NC(=O)C2CCCc3ccccc32)cnc2c(-c3cc(Cl)cc(Cl)c3)cccc12` (centres unmarked) [Compound 68]: the concentration for a half-maximal effect (EC50) was more than 30 µM in assay [1] and less than 1 µM in assay [2].
For the compound `O=C(Nc1cnc2c(-c3cc(Cl)cc(Cl)c3)cccc2c1N1CCOCC1)c1cccc2ccccc12` [Compound 74], the figures for the 50% effective concentration (EC50) in assay [1] and in assay [2] were 10 to 30 µM and less than 1 µM, respectively.
For the compound `CC(C)Oc1c(NC(=O)C2CCOc3ccccc32)cnc2c(-c3cc(Cl)cc(Cl)c3)cccc12` (centres unmarked) [Compound 78], the EC50 in assay [1] is more than 30 µM.
On the same count and under the same terms, for `CC(C)Oc1c(NC(=O)C2CCc3ccccc32)cnc2c(-c3cc(Cl)cc(Cl)c3)cccc12` (centres unmarked) [Compound 80] the value was more than 30 µM.
Take `O=C(Nc1cnc2c(-c3cc(Cl)cc(Cl)c3)cccc2c1N1CCOCC1)C1CCc2ccccc21` (centres unmarked) [Compound 82]: the EC50 was 10 to 30 µM in assay [1] and less than 1 µM in assay [2].
Take `COCCN(C)c1c(NC(=O)C2CCOc3ccccc32)cnc2c(-c3cccc(Cl)c3Cl)cccc12` (centres unmarked) [Compound 93]: the EC50 in assay [1] was more than 30 µM.
On to `CC(C)Nc1c(NC(=O)C2CCCc3ccccc32)cnc2c(-c3cccc(Cl)c3Cl)cccc12` (centres unmarked) [Compound 97], for which the EC50 in assay [1] was more than 30 µM.
On the same count and under the same terms, for `COCCNc1c(NC(=O)C2CCCc3ccccc32)cnc2c(-c3cccc(Cl)c3Cl)cccc12` (centres unmarked) [Compound 101] the value was 10 to 30 µM.
`COCCN(C)c1c(NC(=O)C2CCCc3ccccc32)cnc2c(-c3cccc(Cl)c3Cl)cccc12` (centres unmarked) [Compound 103]: the EC50 in assay [1] is more than 30 µM; in assay [2], less than 1 µM.
For `CCc1c(NC(=O)C2CCOc3ccccc32)cnc2c(-c3cccc(Cl)c3Cl)cccc12` (centres unmarked) [Compound 105] the same measures were more than 30 µM and less than 1 µM.
As for `Cc1c(NC(=O)c2ccnc3ccccc23)cnc2c(-c3cccc(Cl)c3Cl)cccc12` [Compound 106], the EC50 in assay [1] was more than 30 µM.
Regarding `CC(C)c1c(NC(=O)C2CCCc3ccccc32)cnc2c(-c3cccc(Cl)c3Cl)cccc12` (centres unmarked) [Compound 109], the 50% effective concentration (EC50) in assay [1] is more than 30 µM; in assay [2], less than 1 µM.
`O=C(Nc1cnc2c(-c3cccc(Cl)c3Cl)cccc2c1O)C1CCc2ccccc21` (centres unmarked) [Compound 111] returned a concentration giving a half-maximal response (EC50) in assay [1] of more than 30 µM.
Still for that read-out and setting: for `CC(C)Oc1c(NC(=O)C2CCCc3ccccc32)cnc2c(-c3cc(Cl)cc(Cl)c3)c(F)ccc12` (centres unmarked) [Compound 117] the value was more than 30 µM.
In the case of `CCOc1c(NC(=O)C2CCCc3ccccc32)cnc2c(-c3cccc(Cl)c3Cl)c(F)ccc12` (centres unmarked) [Compound 119], the results for the EC50 in assay [1] and in assay [2] were more than 30 µM and less than 1 µM, respectively.
The matching figures for `O=C(Nc1cnc2c(-c3cccc(Cl)c3Cl)c(F)ccc2c1N1CCOCC1)C1CCCc2ccccc21` (centres unmarked) [Compound 121]: 1 to 10 µM and less than 1 µM.
For `O=C(Nc1cnc2c(-c3cc(Cl)cc(Cl)c3)c(F)ccc2c1N1CCOCC1)C1CCOc2ccccc21` (centres unmarked) [Compound 126] the same measures were more than 30 µM and less than 1 µM.
The compound `CCOc1c(NC(=O)C2CCc3ccccc32)cnc2c(-c3cc(Cl)cc(Cl)c3)c(F)ccc12` (centres unmarked) [Compound 134] gave an EC50 in assay [1] of more than 30 µM.
With `CN(C)c1c(NC(=O)C2CCc3ccccc32)cnc2c(-c3cc(Cl)cc(Cl)c3)c(F)ccc12` (centres unmarked) [Compound 135], the EC50 in assay [1] was more than 30 µM; in assay [2], less than 1 µM.
The matching figures for `CCOc1c(NC(=O)C2CCc3ccccc32)cnc2c(-c3cccc(Cl)c3Cl)c(F)ccc12` (centres unmarked) [Compound 139]: more than 30 µM and less than 1 µM.
The matching figures for `CN(C)c1c(NC(=O)C2CCc3ccccc32)cnc2c(-c3cccc(Cl)c3Cl)c(F)ccc12` (centres unmarked) [Compound 140]: 10 to 30 µM and less than 1 µM.
The matching figures for `O=C(Nc1cnc2c(-c3cccc(Cl)c3Cl)c(F)ccc2c1N1CCOCC1)C1CCc2ccccc21` (centres unmarked) [Compound 141]: 1 to 10 µM and less than 1 µM.
Turning to `CCOc1c(NC(=O)c2cccc3ccccc23)cnc2c(-c3cc(Cl)cc(Cl)c3)c(F)ccc12` [Compound 144], the EC50 was more than 30 µM in assay [1] and less than 10 µM in assay [2].
The matching figures for `O=C(Nc1cnc2c(-c3cc(Cl)cc(Cl)c3)c(F)ccc2c1N1CCOCC1)c1cccc2ccccc12` [Compound 146]: 10 to 30 µM and less than 1 µM.
For `CCOc1c(NC(=O)c2cccc3ccccc23)cnc2c(-c3cccc(Cl)c3Cl)c(F)ccc12` [Compound 149] the same measures were more than 30 µM and less than 1 µM.
The matching figures for `CN(C)c1c(NC(=O)c2cccc3ccccc23)cnc2c(-c3cccc(Cl)c3Cl)c(F)ccc12` [Compound 150]: 10 to 30 µM and less than 1 µM.
For `CN(C)c1c(NC(=O)c2cccc3ccccc23)cnc2c(-c3cc(Cl)cc(Cl)c3)cccc12` [Compound 153], the half-maximal effective concentration (EC50) in assay [1] was more than 30 µM; in assay [2] it was less than 10 µM.
The matching figures for `O=C(Nc1cnc2c(-c3cc(Cl)cc(Cl)c3)c(Cl)ccc2c1N1CCOCC1)C1CCOc2ccccc21` (centres unmarked) [Compound 170]: more than 30 µM and less than 1 µM.
In the case of `CN(C)c1c(NC(=O)C2CCOc3ccccc32)cnc2c(-c3cc(Cl)cc(Cl)c3)c(Cl)ccc12` (centres unmarked) [Compound 171], the EC50 is more than 30 µM in assay [1] and less than 1 µM in assay [2].
For `Cc1ccc2c(N3CCOCC3)c(NC(=O)C3CCOc4ccccc43)cnc2c1-c1cc(Cl)cc(Cl)c1` (centres unmarked) [Compound 174], the EC50 is more than 30 µM in assay [1] and less than 1 µM in assay [2].
The matching figures for `COc1c(NC(=O)[C@H]2CCCc3ccccc32)cnc2c(-c3cccc(Cl)c3Cl)c(C)ccc12` [Compound 183]: more than 30 µM and less than 1 µM.
The matching figures for `Cc1ccc2c(N(C)C)c(NC(=O)[C@H]3CCCc4ccccc43)cnc2c1-c1cccc(Cl)c1Cl` [Compound 184]: 10 to 30 µM and less than 1 µM.
For `O=C(Nc1cnc2c(-c3cc(Cl)cc(Cl)c3)c(Cl)ccc2c1N1CCOCC1)[C@H]1CCCc2ccccc21` [Compound 185] the same measures were 10 to 30 µM and less than 1 µM.
On to `CN(C)c1c(NC(=O)[C@H]2CCCc3ccccc32)cnc2c(-c3cc(Cl)cc(Cl)c3)c(Cl)ccc12` [Compound 186], for which the results for the 50% effective concentration (EC50) in assay [1] and in assay [2] were more than 30 µM and less than 1 µM, respectively.
The matching figures for `CCCc1c(NC(=O)c2cccc3ccccc23)cnc2c(-c3cccc(Cl)c3Cl)cccc12` [Compound 187]: more than 30 µM and less than 1 µM.
In turn, `C=C(C)c1c(NC(=O)c2cccc3ccccc23)cnc2c(-c3cccc(Cl)c3Cl)cccc12` [Compound 189] registered a half-maximal effective concentration (EC50) in assay [1] of more than 30 µM.
For `Cc1c(NC(=O)c2cccc3ccccc23)cnc2c(-c3cccc(Cl)c3Cl)cccc12` [Compound 190], the half-maximal effective concentration (EC50) was more than 30 µM in assay [1] and less than 10 µM in assay [2].
The matching figures for `CCc1c(NC(=O)[C@H]2CCCc3ccccc32)cnc2c(-c3cccc(Cl)c3Cl)cccc12` [Compound 204]: more than 30 µM and less than 1 µM.
